Measurements reported in PubChem BioAssay (NCI).
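Values below derive from 48-hour exposures of cells grown in 96-well plates, with endpoints linearly interpolated between the two concentrations bracketing the appropriate inhibition level. TGI: concentration producing complete growth inhibition.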

Tests used:
Assay in all cases: DTP human tumour cell line panel, 48 h
[1] = system: DU-145 prostate
[2] = system: RXF 393 renal
[3] = system: SN12C renal
[4] = system: HL-60(TB) leukemia
[5] = system: HCC-2998 colon
[6] = system: HT29 colon
[7] = system: CCRF-CEM leukemia
[8] = system: SF-539 CNS
[9] = system: NCI/ADR-RES ovarian
[10] = system: EKVX NSCLC
[11] = system: KM12 colon
[12] = system: SK-OV-3 ovarian
[13] = system: UACC-257 melanoma
[14] = system: A549 NSCLC
[15] = system: MALME-3M melanoma
[16] = system: UACC-62 melanoma
[17] = system: OVCAR-3 ovarian
[18] = system: MDA-MB-231 breast
[19] = system: HCT-15 colon
[20] = system: ACHN renal
[21] = system: HOP-92 NSCLC
[22] = system: MDA-N
[23] = system: 786-0 renal
[24] = system: NCI-H460 lung
[25] = system: SK-MEL-2 melanoma
[26] = system: M14 melanoma
[27] = system: T-47D breast
[28] = system: OVCAR-5 ovarian
[29] = system: SK-MEL-28 melanoma
[30] = system: SF-268 CNS
[31] = system: NCI-H522 lung
[32] = system: HOP-62 NSCLC
[33] = system: SW-620 colon
[34] = system: OVCAR-8 ovarian
[35] = system: IGROV1 ovarian
[36] = system: HCT-116 colon
[37] = system: RPMI-8226 leukemia
[38] = system: NCI-H226 lung
[39] = system: MDA-MB-435
[40] = system: SF-295 CNS
[41] = system: UO-31 renal
[42] = system: PC-3 prostate
[43] = system: TK-10 renal
[44] = system: SK-MEL-5 melanoma
[45] = system: HS 578T breast
[46] = system: OVCAR-4 ovarian
[47] = system: K-562 leukemia
[48] = system: U251 CNS
[49] = system: NCI-H23 lung
[50] = system: MCF7 breast
[51] = system: CAKI-1 renal
[52] = system: SR leukemia
[53] = system: COLO 205 colon
[54] = system: SNB-19 CNS
[55] = system: LOX IMVI melanoma
[56] = system: MOLT-4 leukemia
[57] = system: BT-549 breast
[58] = system: A498 renal
[59] = system: SNB-75 CNS

SMILES: O=CC(=C(I)I)c1ccccc1
- TGI [1]: 19.5 µM
- TGI [2]: 3.58 µM
- TGI [3]: 6.39 µM
- TGI [4]: 0.275 µM
- TGI [5]: 26.4 µM
- TGI [6]: > 32.5 µM
- TGI [7]: 0.65 µM
- TGI [8]: 5.17 µM
- TGI [9]: > 38.5 µM
- TGI [10]: 36.9 µM
- TGI [11]: 12.7 µM
- TGI [12]: 29.9 µM
- TGI [13]: 8.05 µM
- TGI [14]: 41.8 µM
- TGI [15]: 4.4 µM
- TGI [16]: 17.5 µM
- TGI [17]: 3.69 µM
- TGI [18]: 5.57 µM
- TGI [19]: 5.01 µM
- TGI [20]: 8.8 µM
- TGI [21]: 6.57 µM
- TGI [22]: 4.81 µM
- TGI [23]: 5.78 µM
- TGI [24]: 40.9 µM
- TGI [25]: 23.2 µM
- TGI [26]: 4.6 µM
- TGI [27]: 9.18 µM
- TGI [28]: 15.1 µM
- TGI [29]: 7.36 µM
- TGI [30]: 9.97 µM
- TGI [31]: 4.06 µM
- TGI [32]: 19.5 µM
- TGI [33]: 2.17 µM
- TGI [34]: 6.95 µM
- TGI [35]: 11.2 µM
- TGI [36]: 2.78 µM
- TGI [37]: 2.62 µM
- TGI [38]: 32 µM
- TGI [39]: 5.65 µM
- TGI [40]: 31.2 µM
- TGI [41]: 7.63 µM
- TGI [42]: 13.7 µM
- TGI [43]: 5.83 µM
- TGI [44]: 14 µM
- TGI [45]: 12.6 µM
- TGI [46]: 4.37 µM
- TGI [47]: 1.34 µM
- TGI [48]: 14.5 µM
- TGI [49]: 4.97 µM
- TGI [50]: 16.2 µM
- TGI [51]: 7.83 µM
- TGI [52]: 1.25 µM
- TGI [53]: 6.79 µM
- TGI [54]: 21.1 µM
- TGI [55]: 4.06 µM
- TGI [56]: 0.944 µM
- TGI [57]: 14.1 µM
- TGI [58]: 40.7 µM
- TGI [59]: 9.97 µM
